The values that follow come from patent US11555031B2, “Compounds and methods for regulating insulin secretion” (The Broad Institute, Inc., priority 2017, dated 2023).

The subject of one series is INS-1E cells. Kind of series: Luciferase Insulin Secretion Assay (proinsulin-Gaussia luciferase reporter). The following applies: for Activity: glucose dependence of insulin secretion, Z-score in the presence of 16.7 mM glucose; for glucose-dependent (glucose-stimulated) insulin secretion, luciferase reporter / effect on glucose-stimulated insulin secretion at high concentrations: INS-1E cells; for glucose-dependent (glucose-stimulated) insulin secretion, luciferase reporter: 2.8 mM vs 16.7 mM glucose; for effect on glucose-stimulated insulin secretion at high concentrations: high compound concentrations. It counts as cell-based, rat. Also on record: key to Activity: Active: a compound is identified as active if the compound has a Z-score greater than 3 in the presence of 16.7 mM glucose; Partial activity indicates that the compound does promote insulin secretion (at lower Z-scores); Lost Glucose Dependence: In some cases, insulin secretion was promoted at both measured insulin concentrations. From the text:
A high-throughput luminescent insulin secretion assay was developed and performed to identify compounds that amplified insulin secretion only in the presence of a permissive glucose environment (FIG. 3). The assay used in compound screening is described in International Patent Publication No. WO2013070796A3, PCT/US2012/063982, and in Burns et al., High-Throughput Luminescent Reporter of Insulin Secretion for Discovering Regulators of Pancreatic Beta-Cell Function. Cell Metab. 2015 Jan. 6; 21(1):126-37.
The assay is a luminescent insulin secretion assay created by inserting Gaussia luciferase within the C-peptide portion of the insulin prohormone. Gaussia luciferase was chosen because of its small size and bright luciferase signal. To ensure full activity of the luciferase, a version was used that was codon-optimized for expression in mammalian cells. The enzyme was flanked with additional cleavage sites for prohormone convertase 2 (PC2), such that no extra amino acids should be present on the ends of the enzyme after processing within the vesicles (FIG. 4). Rat (INS-1E; Merglen et al., 2004) beta-cell lines stably expressing the reporter construct were generated. Assays using this cell type are referred to herein as Luciferase Insulin Secretion Assay.
A search for glucose-dependent insulin secretagogues was conducting by screening 384,216 compounds at a single concentration (10 μM) in duplicate using the Luciferase Insulin Secretion Assay, to identify those that increase insulin secretion only in the presence of high glucose (11.1 mM) (FIG. 6). These assays were performed in 1536 well format. A Z′ factor of 0.35 was obtained with respect the positive control (300 μM IBMX). The cutoff value selected was 45% activation, which was 3-4 standard deviations above background (solid uppermost line; FIG. 6).
For standard secretion assays, INS-1E cells were plated in 96-well format, preincubated for 1 hr in Krebs Ringer Buffer (KRB) with 2.8 mM glucose, and then stimulated for 1 hr in fresh KRB containing varying amounts of glucose and compounds. Insulin or C-peptide concentration was determined using an ELISA (Mercodia), following the manufacturer's protocol. Luciferase activity was determined from the same samples by adding the coelenterazine substrate to the supernatant to a final concentration of 10 μM and reading on a standard plate reader (BioTek).
INS-1E cells were expanded to 80% confluence in their growth medium, washed once in PBS, and preincubated for 1 hr at 37° C. in KRB with 2.8 mM glucose. Cells were then dissociated, spun at 300×g for 2 min, resuspended in fresh KRB without glucose, and filtered through 40 μm mesh (Becton Dickinson). Next, the cells were counted and diluted in KRB to 1×10^6 cells per ml, and glucose was added as required for each experiment. Cells were then seeded in 384-well format, 3×10^4 cells in 30 μl per well, using a Multidrop Combi device (Thermo Scientific). Compounds were pinned into each well using a Vario robot (CyBio) to a final concentration of 30 μM, and the plates were then incubated for 2 hr at 37° C. For assays involving a transfer step, the plates were then centrifuged at 300×g for 2 min, and 20 μl of supernatant was transferred to a new 384-well plate. Coelenterazine substrate was then added to a final concentration of 10 μM, and luciferase activity was determined using a standard plate reader (BioTek).
In general terms: A reporter such as luciferase makes a cellular process visible.

Series [1] can be described thus: Solubility (medicinal chemistry measurements). It counts as physicochemical. The following applies: relative to Compound 8.
The test system of a further series is alpha-TC-1-6. Kind of series: Luminescent glucagon secretion assay in alpha-cell line. The note with it: compared with DMSO negative control. It counts as cell-based. Here is the method: FIG. 10 depicts the quantification of α-cell secretory activity in cells treated with DMSO, KCl, or Compound 8, using a luminescent assay for glucagon secretion.
To investigate the cell-type specificity of the compound, and to exclude the possibility that Compound 8 acts as a generic secretagogue, the compound was tested on secretion from a rodent alpha-cell line, “alpha-TC-1-6,” using a luciferase reporter for glucagon secretion that mirrors the insulin secretion assay (FIG. 10).

The next series is described as follows: Plasma stability, human. It counts as in vitro ADME. Here is the method:
(§1) Measurements were performed on human, mouse (CD-1) and rat (SD) microsomes to determine the t1/2, the plasma protein binding (“PPB”) and the plasma stability (“PS”).

The next series can be described thus: Plasma stability, mouse. Type of series: in vitro ADME. Here is the method: as §1
The nature of a further series: Plasma stability, rat. It counts as in vitro ADME. Here is the method:
as §1

Entries after “also recorded” stand apart in the source; their conditions may differ.

For orientation: EC50 means the concentration giving half of the maximal effect.

Turning to `Cc1cccc(NC(=O)c2ccc(OCc3c(C)cncc3C)cc2)c1C` [Compound 49, N-(2,3-Dimethyl-phenyl)-4-(3,5-dimethyl-pyridin-4-ylmethoxy)-benzamide], the concentration for a half-maximal effect (EC50) with INS-1E cells (Rattus norvegicus, INS-1E, glucose concentration of 16.7 mM) was approximately 82 nM. The result in the series with INS-1E cells was Inactive. Also, the solubility entry in series [1] is reported as “lower solubility than Compound 8”.
`Cc1cccc(C)c1NC(=O)c1ccc(OCc2c(C)noc2C)cc1` [Compound 77]: the result in the series with INS-1E cells was Inactive.
On to `Cc1cccc(NC(=O)c2ccc(OCc3c(C)noc3C)cc2)c1Cl` [Compound 78, N-(2-Chloro-3-methyl-phenyl)-4-(3,5-dimethyl-isoxazol-4-ylmethoxy)-benzamide], for which the outcome in the series with INS-1E cells was Inactive.
Regarding `Cc1noc(C)c1COc1ccc(C(=O)N2CCc3ccccc32)cc1` [Compound 79], the result with INS-1E cells was Inactive.
Take `Cc1noc(C)c1COc1ccc(C(=O)N2CCCc3ccccc32)cc1` [Compound 80]: the result in the series with INS-1E cells was Inactive.
Still for that read-out and setting: in the case of `Cc1noc(C)c1COc1ccc(C(=O)Nc2cccc3c2CCC3)cc1` [Compound 81, 4-(3,5-Dimethyl-isoxazol-4-ylmethoxy)-N-indan-4-yl-benzamide] it was “Inactive”; in that of `Cc1cccc(NC(=O)c2ccc(OCc3c(C)noc3C)cc2)n1` [Compound 82], “Inactive”.
In the case of `Cc1noc(C)c1COc1ccc(C(=O)Nc2cccc(C#N)c2C)cc1` [Compound 83, N-(3-Cyano-2-methyl-phenyl)-4-(3,5-dimethyl-isoxazol-4-ylmethoxy)-benzamide], the result in the series on INS-1E cells was Inactive.
On to `COCc1cccc(NC(=O)c2ccc(OCc3c(C)noc3C)cc2)c1` [Compound 84, 4-(3,5-Dimethyl-isoxazol-4-ylmethoxy)-N-(3-methoxymethyl-phenyl)-benzamide], for which, in the series on INS-1E cells, the outcome was Inactive.
Same read-out and setting: then `CC(=O)c1ccccc1NC(=O)c1ccc(OCc2c(C)noc2C)cc1` [Compound 85], with “Inactive”.
Take `Cc1noc(C)c1COc1ccc(C(=O)NC2CCCO2)cc1` (stereo not drawn) [Compound 86]: the result in the series on INS-1E cells was Inactive.
In the case of `CC(=O)NCCCc1cc(C(=O)Nc2cccc(C)c2C)ccc1OCc1c(C)noc1C` [Compound 88, 3-(3-Acetylamino-propyl)-4-(3,5-dimethyl-isoxazol-4-ylmethoxy)-N-(2,3-dimethyl-phenyl)-benzamide], the outcome in the series with INS-1E cells was Active.
In the case of `Cc1cccc(NC(=O)c2ccc(OCc3c(C)noc3C)c(CCCN=[N+]=[N-])c2)c1C` [Compound 89, 3-(3-Azido-propyl)-4-(3,5-dimethyl-isoxazol-4-ylmethoxy)-N-(2,3-dimethyl-phenyl)-benzamide], in the series on INS-1E cells, the result was Inactive.
As to `CC(=O)NCc1ccccc1NC(=O)c1ccc(OCc2c(C)noc2C)cc1` [Compound 90, N-[2-(Acetylamino-methyl)-phenyl]-4-(3,5-dimethyl-isoxazol-4-ylmethoxy)-benzamide], the result in the series on INS-1E cells was Inactive.
Consider `CC(=O)NCc1cccc(NC(=O)c2ccc(OCc3c(C)noc3C)cc2)c1` [Compound 91, N-[3-(Acetylamino-methyl)-phenyl]-4-(3,5-dimethyl-isoxazol-4-ylmethoxy)-benzamide], for which the result with INS-1E cells was Inactive.
As to `Cc1cc(OCc2c(C)noc2C)ccc1-c1cnc(-c2cccc(C)c2C)[nH]1` [Compound 93], the result with INS-1E cells was Inactive.
Regarding `Cc1cccc(-c2cnc(-c3ccc(OCc4c(C)noc4C)cc3)[nH]2)c1C` [Compound 94], the result with INS-1E cells was Inactive.
For `Cc1cccc(-c2cc(-c3ccc(OCc4c(C)noc4C)cc3)n[nH]2)c1C` [Compound 95], in the series with INS-1E cells, the result was Inactive.
As for `COCc1ccccc1NC(=O)c1ccc(OCc2c(C)noc2C)cc1` [Compound 96, 4-(3,5-Dimethyl-isoxazol-4-ylmethoxy)-N-(2-methoxymethyl-phenyl)-benzamide], the result in the series with INS-1E cells was Inactive.
In the case of `Cc1cccc(NS(=O)(=O)c2ccc(OCc3c(C)noc3C)cc2)c1C` [Compound 97, 4-(3,5-Dimethyl-isoxazol-4-ylmethoxy)-N-(2,3-dimethyl-phenyl)-benzenesulfonamide], the result in the series with INS-1E cells was Inactive.
As to `Cc1sc2c(c1C)C(c1ccc(Cl)cc1)=N[C@@H](CC(=O)OC(C)(C)C)c1nnc(C)n1-2` [JQ1, reference compound], in the series on INS-1E cells, the “glucose-dependent (glucose-stimulated) insulin secretion, luciferase reporter” value (“glucose-dependent” below) was “None of the compounds assayed increased glucose-dependent insulin secretion; also recorded: No increase in secretion; also recorded: small effect” and the “effect on glucose-stimulated insulin secretion at high concentrations” value (“effect” below) is recorded as “inhibitory effects; also recorded: decrease in glucose-stimulated secretion”.
For the compound `[Cl-].[K+]` [KCl, potassium chloride, reference compound], the “alpha-cell secretory activity (luciferase reporter for glucagon secretion)” value with alpha-TC-1-6 is on record as “causes secretion”.
Consider `COc1ccccc1S(=O)(=O)Nc1ccc2c(c1)CN(C)C(=O)N2` [PF1, reference compound], for which the “glucose-dependent” value in the series with INS-1E cells is reported as “neither of the known bromodomain inhibitors (PF1 or CBP30) affect secretion to the extent of Compound 8”.
In the case of `COc1ccccc1S(=O)(=O)Nc1ccc2c(c1)CN(C)C(=O)N2` [PF-1, reference compound], in the series on INS-1E cells, the “glucose-dependent” value is on record as “None of the compounds assayed increased glucose-dependent insulin secretion” and the “effect” value is on record as “inhibitory effects”.
`COc1ccc(CCc2nc3cc(-c4c(C)noc4C)ccc3n2C[C@H](C)N2CCOCC2)cc1Cl` [SGC-CBP30, reference compound]: in the series on INS-1E cells, the “glucose-dependent” value was “None of the compounds assayed increased glucose-dependent insulin secretion” and the “effect” value was “inhibitory effects”.
Take `CC1CC(OC(=O)C(O)c2ccccc2)CC(C)(C)N1C` (stereo not drawn) [eucatropine, reference compound]: the PS was 1.1 % remaining in “Plasma stability, human”; 24.6 % remaining in “Plasma stability, mouse”; 32.4 % remaining in “Plasma stability, rat”.
